From ChEMBL document CHEMBL2074164, “Characterization of the transport of the bicyclic peptide phalloidin by human hepatic transport proteins” (Naunyn Schmiedebergs Arch Pharmacol, 2003) come the findings set out here.

Common to all, as to type: functional, cell-based
The target of series [1] is T1, Solute carrier organic anion transporter family member 1B1 (Homo sapiens, UniProt Q9Y6L6).
T1 sequence (Q9Y6L6 whole entry): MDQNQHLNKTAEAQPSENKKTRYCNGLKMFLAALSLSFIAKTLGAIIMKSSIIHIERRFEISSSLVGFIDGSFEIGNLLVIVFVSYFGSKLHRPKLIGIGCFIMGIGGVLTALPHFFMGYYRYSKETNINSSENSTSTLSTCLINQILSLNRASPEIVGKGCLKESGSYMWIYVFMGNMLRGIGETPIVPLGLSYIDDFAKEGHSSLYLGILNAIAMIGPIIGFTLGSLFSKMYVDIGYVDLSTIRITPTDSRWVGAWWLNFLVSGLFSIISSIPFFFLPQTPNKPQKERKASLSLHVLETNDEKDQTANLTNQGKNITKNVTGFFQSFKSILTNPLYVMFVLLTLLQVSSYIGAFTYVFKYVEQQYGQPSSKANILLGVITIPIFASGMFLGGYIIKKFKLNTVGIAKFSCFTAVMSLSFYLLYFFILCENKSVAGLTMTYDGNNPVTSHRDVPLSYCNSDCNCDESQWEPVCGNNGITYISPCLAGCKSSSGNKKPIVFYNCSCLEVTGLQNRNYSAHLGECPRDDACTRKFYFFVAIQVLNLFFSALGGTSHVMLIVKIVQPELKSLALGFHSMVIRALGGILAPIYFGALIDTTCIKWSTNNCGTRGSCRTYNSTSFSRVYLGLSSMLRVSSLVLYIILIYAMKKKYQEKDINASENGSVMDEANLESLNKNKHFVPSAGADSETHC
The experiment in a line: TP_TRANSPORTER: inhibition of Phalloidin uptake (Phalloidin: 1 uM) in OATP-C-expressing HEK293 cells.

Series [2] deals with Canalicular multispecific organic anion transporter 1/Solute carrier organic anion transporter family member 1B1 (Homo sapiens, UniProt Q92887+Q9Y6L6). The experiment in a line: TP_TRANSPORTER: transepithelial transport (basal to apical) of Phalloidin at a concentration of 1 uM in MRP2- and OATP-C-expressing MDCKII cells. The conditions noted are these: dog, mdck-ii.
For series [3], the target named is T1, Solute carrier organic anion transporter family member 1B1. The experiment in a line: TP_TRANSPORTER: inhibition of Phalloidin uptake (Phalloidin: 1 uM) by alpha-Amanitin at a concentration of 20 u M in OATP-C-expressing HEK293 cells. The conditions noted are these: hek293, 20 µM.
Substrate in series [4]: C[C@@H]1NC(=O)[C@H](C[C@@](C)(O)CO)NC(=O)[C@@H]2Cc3c([nH]c4ccccc34)SC[C@H](NC(=O)[C@@H]([C@H](C)O)NC1=O)C(=O)N1C[C@@H](O)C[C@H]1C(=O)N[C@@H](C)C(=O)N2
The experiment in a line: TP_TRANSPORTER: uptake in OATP-C-expressing HEK293 cells.

As usually defined, the IC50 is the concentration at which inhibition is half-maximal. A low value points to greater potency in that assay. Usually Km stands for the concentration of substrate that gives half-maximal velocity.

*1 amine or outer side, *2 acyl side, *3 side chain or, on linkers, in order; H or OH if unused. Where a SMILES comes first, the peptide text is derived from it. Bridges are numbered along the chain shown (N, C = ends). [ ]: non-standard residue; d: D form. Trp(2-yl) = O=C([C@H](Cc1c([*:3])[nH]c2ccccc12)N[*:1])[*:2]; Leu(4R-OH,5-OH) = C[C@](O)(CO)C[C@H](N)C(=O)O; cisHyp = O=C(O)[C@@H]1C[C@H](O)CN1

For `CC(C)[C@@H]1NC(=O)[C@@H](Cc2ccccc2)NC(=O)[C@H](Cc2ccccc2)NC(=O)[C@@H]2CCCN2C(=O)[C@@H]2CCCN2C(=O)[C@H](Cc2ccccc2)NC(=O)[C@@H](Cc2ccccc2)NC(=O)[C@H](C)NC(=O)[C@@H]2CCCN2C(=O)[C@@H]2CCCN2C1=O` [ANTAMANIDE], the IC50 in series [1] was 1 µM.

Take `C[C@@H]1NC(=O)[C@H](C[C@@](C)(O)CO)NC(=O)[C@@H]2Cc3c([nH]c4ccccc34)SC[C@H](NC(=O)[C@@H]([C@H](C)O)NC1=O)C(=O)N1C[C@@H](O)C[C@H]1C(=O)N[C@@H](C)C(=O)N2` [PHALLOIDIN] (cyclo(A[dT]C[cisHyp]A[Trp(2-yl)][Leu(4R-OH,5-OH)]); thioether 3-6): in series [2], the Activity result is “substrate [+]”.

Consider `CO[C@H]1C[C@@H]2CC[C@@H](C)[C@@](O)(O2)C(=O)C(=O)N2CCCC[C@H]2C(=O)O[C@H]([C@H](C)C[C@@H]2CC[C@@H](O)[C@H](OC)C2)CC(=O)[C@H](C)/C=C(\C)[C@@H](O)[C@@H](OC)C(=O)[C@H](C)C[C@H](C)/C=C/C=C/C=C/1C` [SIROLIMUS], for which, in series [1], the 50% inhibitory concentration (IC50) is 1.1 µM.

As to `O=C1OC(c2ccc(O)c(S(=O)(=O)O)c2)(c2ccc(O)c(S(=O)(=O)O)c2)c2c(Br)c(Br)c(Br)c(Br)c21` [SULFOBROMOPHTHALEIN SODIUM], the IC50 in series [1] turned out to be 0.05 µM.

On to `C=CC[C@@H]1/C=C(\C)C[C@H](C)C[C@H](OC)[C@H]2O[C@@](O)(C(=O)C(=O)N3CCCC[C@H]3C(=O)O[C@H](/C(C)=C/[C@@H]3CC[C@@H](O)[C@H](OC)C3)[C@H](C)[C@@H](O)CC1=O)[C@H](C)C[C@@H]2OC` [TACROLIMUS ANHYDROUS], for which the IC50 in series [1] is 3.7 µM.

As to `CC[C@H](C)[C@@H]1NC(=O)CNC(=O)[C@@H]2Cc3c([nH]c4cc(O)ccc34)[S+]([O-])C[C@@H](NC(=O)CNC1=O)C(=O)N[C@@H](CC(N)=O)C(=O)N1C[C@H](O)C[C@H]1C(=O)N[C@@H]([C@@H](C)[C@@H](O)CO)C(=O)N2` (stereo partly drawn) [alpha-Amanitin], the Activity entry in series [3] is “is not an inhibitor [-]”.

B1: Solute carrier organic anion transporter family member 1B1 (Homo sapiens) (protein)
chain: MDQNQHLNKTAEAQPSENKKTRYCNGLKMFLAALSLSFIAKTLGAIIMKSSIIHIERRFEISSSLVGFIDGSFEIGNLLVIVFVSYFGSKLHRPKLIGIGCFIMGIGGVLTALPHFFMGYYRYSKETNINSSENSTSTLSTCLINQILSLNRASPEIVGKGCLKESGSYMWIYVFMGNMLRGIGETPIVPLGLSYIDDFAKEGHSSLYLGILNAIAMIGPIIGFTLGSLFSKMYVDIGYVDLSTIRITPTDSRWVGAWWLNFLVSGLFSIISSIPFFFLPQTPNKPQKERKASLSLHVLETNDEKDQTANLTNQGKNITKNVTGFFQSFKSILTNPLYVMFVLLTLLQVSSYIGAFTYVFKYVEQQYGQPSSKANILLGVITIPIFASGMFLGGYIIKKFKLNTVGIAKFSCFTAVMSLSFYLLYFFILCENKSVAGLTMTYDGNNPVTSHRDVPLSYCNSDCNCDESQWEPVCGNNGITYISPCLAGCKSSSGNKKPIVFYNCSCLEVTGLQNRNYSAHLGECPRDDACTRKFYFFVAIQVLNLFFSALGGTSHVMLIVKIVQPELKSLALGFHSMVIRALGGILAPIYFGALIDTTCIKWSTNNCGTRGSCRTYNSTSFSRVYLGLSSMLRVSSLVLYIILIYAMKKKYQEKDINASENGSVMDEANLESLNKNKHFVPSAGADSETHC
As for B1, the Km in series [4] amounted to 39 µM.
